Emax and EC50 data for five compounds are collected here from patent publication US20230265151A1, “GIP/GLP1 CO-AGONIST COMPOUNDS” (priority 2020, published 2023).

For one test, the target named is hGLP-1R (Homo sapiens, UniProt P43220). Nature of the test: Functional cAMP formation (HTRF) in HEK-293 clonal cells expressing hGLP-1R, 0.1% bovine casein, without or with 1.0% human serum albumin. The format is cell-based. The arrangement: expressed in transfected cells. The note with it: for EC50: cAMP, 0.1% bovine casein (no human serum albumin), geometric mean. As to the method: After a 30-min incubation at 37° C., the resulting increase in intracellular cAMP is quantitatively determined using a CisBio cAMP Dynamic 2 HTRF Assay Kit (62AM4PEJ). Briefly, cAMP levels within the cell are detected by adding the cAMP-d2 conjugate in cell lysis buffer (10 µL) followed by the antibody anti-cAMP-Eu^3+-Cryptate, also in cell lysis buffer (10 µL). The resulting competitive assay is incubated for at least 60 min at room temperature, and then is detected using a PerkinElmer Envision® instrument with excitation at 320 nm and emission at 665 nm and 620 nm. Envision units (emission at 665 nm/620 nm* 10,000) are inversely proportional to the amount of cAMP present and are converted to nM cAMP per well us-ing a cAMP standard curve. […] A relative EC50 value and percent top (Emax) are derived by non-linear regression analysis using the percent maximal response vs. the concentration of peptide added, fitted to a four-parameter logistic equation.
On the technique in general: Changes in cAMP serve as a functional read-out for many G protein-coupled receptors.

The target of the next test is T1, hGCGR (Homo sapiens, UniProt P47871).
T1 construct: expressed in transfected cells
Nature of the test: Functional cAMP formation (HTRF) in HEK-293 clonal cells expressing hGCGR, 0.1% bovine casein, without or with 1.0% human serum albumin. In kind it is cell-based. In short, it runs like this:
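Readings of the HTRF 665/620 nm ratio, which falls as cAMP rises, were converted to nM cAMP using a standard curve after 30 min peptide exposure at 37° C.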

Where [1] appears, read: HEK293, cAMP, 37° C., 0.1% bovine casein, percent of maximal response to GLP-1(7-36)NH2, arithmetic mean, read-out: hGLP-1R Emax, % ± SEM.
Setting [2] is: 37° C., read-out: hGLP-1R EC50, nM (SEM, n).
[3] abbreviates: cAMP, 37° C., 0.1% bovine casein (no human serum albumin), geometric mean, read-out: hGCGR EC50, nM (SEM, n).
Setting [4] is: HEK293, read-out: hGLP-1R Emax, % ± SEM, percent of maximal response to GLP-1(7-36)NH2, 37° C., 0.1% bovine casein, arithmetic mean.
Where [5] appears, read: hGCGR EC50, nM (SEM, n), cAMP, incubated at 37° C., 0.1% bovine casein (no human serum albumin), geometric mean.

The Emax is the size of the effect at its maximum, as opposed to the concentration needed. Usually EC50 stands for the concentration that produces a half-maximal response.

Where two headings read alike, the source gives them in different places. *1 amine or outer side, *2 acyl side, *3 side chain or, on linkers, in order; H or OH if unused. Where a SMILES comes first, the peptide text is derived from it. Side-chain parts run from the residue outwards. [ ]: non-standard residue; d: D form. The star is where a group is joined. αMePhe(2-F) = C[C@](N)(Cc1ccccc1F)C(=O)O; γGlu = O=C(O)[C@H](CCC(=O)[*:2])N[*:1]; αMeY = C[C@](N)(Cc1ccc(O)cc1)C(=O)O; αMeF = C[C@](N)(Cc1ccccc1)C(=O)O; 4Pal = N[C@@H](Cc1ccncc1)C(=O)O; αMeL = CC(C)C[C@](C)(N)C(=O)O; Lauroyl = CCCCCCCCCCCC(=O)*; Orn = NCCC[C@H](N)C(=O)O; AEEA = NCCOCCOCC(=O)O; Aib = CC(C)(N)C(=O)O

T1 sequence (P47871 26-477): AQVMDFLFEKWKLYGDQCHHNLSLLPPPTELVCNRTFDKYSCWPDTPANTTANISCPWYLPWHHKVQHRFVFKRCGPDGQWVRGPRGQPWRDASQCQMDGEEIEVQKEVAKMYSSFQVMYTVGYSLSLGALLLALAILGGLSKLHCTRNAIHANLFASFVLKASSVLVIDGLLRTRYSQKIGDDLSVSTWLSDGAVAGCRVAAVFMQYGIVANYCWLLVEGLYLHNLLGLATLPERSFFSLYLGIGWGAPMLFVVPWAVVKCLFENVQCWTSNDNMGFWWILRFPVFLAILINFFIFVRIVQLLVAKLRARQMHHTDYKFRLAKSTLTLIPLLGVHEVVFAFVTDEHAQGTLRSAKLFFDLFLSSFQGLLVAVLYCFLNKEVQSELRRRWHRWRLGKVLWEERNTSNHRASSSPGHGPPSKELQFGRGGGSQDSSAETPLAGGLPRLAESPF
Sequence of hGLP-1R (P43220 24-463): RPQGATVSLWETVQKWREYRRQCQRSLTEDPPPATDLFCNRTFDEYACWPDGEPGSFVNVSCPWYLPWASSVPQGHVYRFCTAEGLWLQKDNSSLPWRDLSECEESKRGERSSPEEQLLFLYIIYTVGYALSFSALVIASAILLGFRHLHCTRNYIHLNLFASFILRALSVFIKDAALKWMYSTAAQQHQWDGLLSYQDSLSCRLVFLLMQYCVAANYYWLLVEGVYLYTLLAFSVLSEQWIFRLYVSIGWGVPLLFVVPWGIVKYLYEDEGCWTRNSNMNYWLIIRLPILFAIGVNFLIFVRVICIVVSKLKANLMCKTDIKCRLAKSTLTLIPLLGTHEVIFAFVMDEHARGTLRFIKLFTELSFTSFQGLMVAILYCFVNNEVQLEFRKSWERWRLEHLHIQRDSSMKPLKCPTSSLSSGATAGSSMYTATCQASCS

For the compound `CCCCCCCCCCCC(=O)N[C@@H](CCC(=O)NCCOCCOCC(=O)NCCOCCOCC(=O)NCCOCCOCC(=O)NCCCC[C@H](NC(=O)[C@H](CO)NC(=O)[C@@H]1CCCN1C(=O)[C@@H]1CCCN1C(=O)[C@@H]1CCCN1C(=O)[C@H](C)NC(=O)CNC(=O)[C@H](CO)NC(=O)[C@H](CO)NC(=O)[C@@H]1CCCN1C(=O)CNC(=O)CNC(=O)[C@H](CCC(=O)O)NC(=O)[C@@H](NC(=O)[C@H](CC(C)C)NC(=O)[C@](C)(Cc1ccc(O)cc1)NC(=O)[C@@H](CCC(=O)O)NC(=O)[C@@H](NC(=O)[C@](C)(Cc1ccccc1)NC(=O)[C@H](CCC(=O)O)NC(=O)C(C)(C)NC(=O)[C@H](CCC(N)=O)NC(=O)[C@H](C)NC(=O)[C@H](CCCCNC(=O)COCCOCCNC(=O)COCCOCCNC(=O)COCCOCCNC(=O)CC[C@H](NC(=O)CCCCCCCCCCC)C(=O)O)NC(=O)[C@H](CCCN)NC(=O)[C@H](CC(=O)O)NC(=O)[C@H](CC(C)C)NC(=O)[C@](C)(CC(C)C)NC(=O)[C@@H](NC(=O)C(C)(C)NC(=O)[C@H](Cc1ccncc1)NC(=O)[C@H](CC(=O)O)NC(=O)[C@H](CO)NC(=O)[C@@H](NC(=O)[C@](C)(Cc1ccccc1F)NC(=O)[C@@H](NC(=O)CNC(=O)[C@H](CCC(=O)O)NC(=O)C(C)(C)NC(=O)[C@@H](N)Cc1ccc(O)cc1)[C@@H](C)O)[C@@H](C)O)[C@@H](C)CC)[C@@H](C)CC)[C@@H](C)CC)C(N)=O)C(=O)O` [Example 439] (H-Y[Aib]EGT[αMePhe(2-F)]TSD[4Pal][Aib]I[αMeL]LD[Orn]K([AEEA-AEEA-AEEA-γGlu-Lauroyl])AQ[Aib]E[αMeF]I[dE][αMeY]LIEGGPSSGAPPPSK([AEEA-AEEA-AEEA-γGlu-Lauroyl])-NH2), the maximal response (Emax) at hGLP-1R (HEK293, cAMP, 37° C., 0.1% bovine casein and 1.0% human serum albumin, percent of maximal response to GLP-1(7-36)NH2, read-out: hGLP-1R Emax, % ± SEM) was 97%; at hGLP-1R (setting [1]), 95.7%. Further, the EC50 was 0.11 nM on hGLP-1R (setting [2]); > 9950 nM at hGCGR (setting [3]); > 9950 nM on hGCGR (cAMP, 37° C., 0.1% bovine casein and 1.0% human serum albumin, geometric mean (SEM, n), read-out: hGCGR EC50, nM (SEM, n)).

Take `CC[C@H](C)[C@H](NC(=O)[C@H](CC(C)C)NC(=O)[C@](C)(Cc1ccccc1)NC(=O)[C@H](CCCCNC(=O)COCCOCCNC(=O)COCCOCCNC(=O)CC[C@H](NC(=O)CCCCCCCCCCCCC(=O)O)C(=O)O)NC(=O)[C@@H](NC(=O)[C@](C)(Cc1ccccc1)NC(=O)[C@H](CCC(=O)O)NC(=O)C(C)(C)NC(=O)[C@H](CCC(N)=O)NC(=O)[C@H](C)NC(=O)[C@H](CCCCNC(=O)COCCOCCNC(=O)COCCOCCNC(=O)CC[C@H](NC(=O)CCCCCCCCCCCCC(=O)O)C(=O)O)NC(=O)[C@H](CCCN)NC(=O)[C@H](CC(=O)O)NC(=O)[C@H](CC(C)C)NC(=O)[C@](C)(CC(C)C)NC(=O)[C@@H](NC(=O)[C@H](CO)NC(=O)C1(NC(=O)[C@H](CC(=O)O)NC(=O)[C@H](CO)NC(=O)[C@@H](NC(=O)[C@](C)(Cc2ccccc2F)NC(=O)[C@@H](NC(=O)CNC(=O)[C@H](CCC(=O)O)NC(=O)C(C)(C)NC(=O)[C@@H](N)Cc2ccc(O)cc2)[C@@H](C)O)[C@@H](C)O)CCCC1)[C@@H](C)CC)[C@@H](C)CC)C(=O)N[C@@H](CCC(=O)O)C(=O)NCC(=O)NCC(=O)N1CCC[C@H]1C(=O)N[C@@H](CO)C(=O)N[C@@H](CO)C(=O)NCC(=O)N[C@@H](C)C(=O)N1CCC[C@H]1C(=O)N1CCC[C@H]1C(=O)N1CCC[C@H]1C(=O)N[C@@H](CO)C(N)=O` [Example 124]: at hGLP-1R (setting [4]), the Emax is 93.3%. At hGCGR (setting [5]), the 50% effective concentration (EC50) was > 9950 nM.

Take `CC[C@H](C)[C@H](NC(=O)[C@H](CC(C)C)NC(=O)[C@](C)(Cc1ccc(O)cc1)NC(=O)[C@@H](CCC(=O)O)NC(=O)[C@@H](NC(=O)[C@H](Cc1ccccc1)NC(=O)[C@H](CCC(=O)O)NC(=O)C(C)(C)NC(=O)[C@H](CCC(N)=O)NC(=O)[C@H](C)NC(=O)[C@H](CCCCNC(=O)COCCOCCNC(=O)COCCOCCNC(=O)CC[C@H](NC(=O)CCCCCCCCCOc1ccc(C(=O)O)cc1)C(=O)O)NC(=O)[C@H](CCCN)NC(=O)[C@H](CC(=O)O)NC(=O)[C@H](CC(C)C)NC(=O)[C@](C)(CC(C)C)NC(=O)[C@@H](NC(=O)[C@H](CO)NC(=O)[C@H](Cc1ccncc1)NC(=O)[C@H](CC(=O)O)NC(=O)[C@H](CO)NC(=O)[C@@H](NC(=O)[C@](C)(Cc1ccccc1F)NC(=O)[C@@H](NC(=O)CNC(=O)[C@H](CCC(=O)O)NC(=O)C(C)(C)NC(=O)[C@@H](N)Cc1ccc(O)cc1)[C@@H](C)O)[C@@H](C)O)[C@@H](C)CC)[C@@H](C)CC)C(=O)N[C@@H](CCCCNC(=O)COCCOCCNC(=O)COCCOCCNC(=O)CC[C@H](NC(=O)CCCCCCCCCOc1ccc(C(=O)O)cc1)C(=O)O)C(=O)NCC(=O)NCC(=O)N1CCC[C@H]1C(=O)N[C@@H](CO)C(=O)N[C@@H](CO)C(=O)NCC(=O)N[C@@H](C)C(=O)N1CCC[C@H]1C(=O)N1CCC[C@H]1C(=O)N1CCC[C@H]1C(=O)N[C@@H](CO)C(N)=O` [Example 129]: the Emax on hGLP-1R (setting [4]) was 97.9%. In addition, the concentration giving a half-maximal response (EC50) on hGLP-1R (hGLP-1R EC50, nM (SEM, n), incubated at 37° C.) was 1.28 nM; on hGCGR (setting [5]), > 9950 nM.

For `CC[C@H](C)[C@H](NC(=O)[C@H](CC(C)C)NC(=O)[C@](C)(Cc1ccc(O)cc1)NC(=O)[C@@H](CCC(=O)O)NC(=O)[C@@H](NC(=O)[C@H](Cc1ccccc1)NC(=O)[C@H](CCC(=O)O)NC(=O)C(C)(C)NC(=O)[C@H](CCC(N)=O)NC(=O)[C@H](C)NC(=O)[C@H](CCCCNC(=O)COCCOCCNC(=O)COCCOCCNC(=O)CC[C@H](NC(=O)CCCCCCCCCCCCC(=O)O)C(=O)O)NC(=O)[C@H](CCCN)NC(=O)[C@H](CC(=O)O)NC(=O)[C@H](CC(C)C)NC(=O)[C@](C)(CC(C)C)NC(=O)[C@@H](NC(=O)[C@H](CO)NC(=O)[C@H](Cc1ccc2ccccc2c1)NC(=O)[C@H](CC(=O)O)NC(=O)[C@H](CO)NC(=O)[C@@H](NC(=O)[C@](C)(Cc1ccccc1F)NC(=O)[C@@H](NC(=O)CNC(=O)[C@H](CCC(=O)O)NC(=O)C(C)(C)NC(=O)[C@@H](N)Cc1ccc(O)cc1)[C@@H](C)O)[C@@H](C)O)[C@@H](C)CC)[C@@H](C)CC)C(=O)N[C@@H](CCCCNC(=O)COCCOCCNC(=O)COCCOCCNC(=O)CC[C@H](NC(=O)CCCCCCCCCCCCC(=O)O)C(=O)O)C(=O)NCC(=O)NCC(=O)N1CCC[C@H]1C(=O)N[C@@H](CO)C(=O)N[C@@H](CO)C(=O)NCC(=O)N[C@@H](C)C(=O)N1CCC[C@H]1C(=O)N1CCC[C@H]1C(=O)N1CCC[C@H]1C(=O)N[C@@H](CO)C(N)=O` [Example 250], the Emax on hGLP-1R (setting [1]) worked out at 114%. In addition, the EC50 on hGLP-1R (setting [2]) is 0.414 nM; at hGCGR (0.1% bovine casein and 1.0% human serum albumin, 37° C., geometric mean, read-out: hGCGR EC50, nM (SEM, n)), > 9950 nM; at hGCGR (setting [3]), > 9950 nM.

With `CC[C@H](C)[C@H](NC(=O)[C@H](CC(C)C)NC(=O)[C@](C)(Cc1ccc(O)cc1)NC(=O)[C@@H](CCC(=O)O)NC(=O)[C@@H](NC(=O)[C@H](Cc1ccccc1)NC(=O)[C@H](CCCCNC(=O)COCCOCCNC(=O)COCCOCCNC(=O)CC[C@H](NC(=O)CCCCCCCCCOc1ccc(C(=O)O)cc1)C(=O)O)NC(=O)C(C)(C)NC(=O)[C@H](CCC(N)=O)NC(=O)[C@H](C)NC(=O)[C@H](CCCCNC(=O)COCCOCCNC(=O)COCCOCCNC(=O)CC[C@H](NC(=O)CCCCCCCCCOc1ccc(C(=O)O)cc1)C(=O)O)NC(=O)[C@H](CCCN)NC(=O)[C@H](CC(=O)O)NC(=O)[C@H](CC(C)C)NC(=O)[C@](C)(CC(C)C)NC(=O)[C@@H](NC(=O)[C@H](CO)NC(=O)[C@H](Cc1ccncc1)NC(=O)[C@H](CC(=O)O)NC(=O)[C@H](CO)NC(=O)[C@@H](NC(=O)[C@](C)(Cc1ccccc1F)NC(=O)[C@@H](NC(=O)CNC(=O)[C@H](CCC(=O)O)NC(=O)C(C)(C)NC(=O)[C@@H](N)Cc1ccc(O)cc1)[C@@H](C)O)[C@@H](C)O)[C@@H](C)CC)[C@@H](C)CC)C(=O)N[C@@H](CCC(=O)O)C(=O)NCC(=O)NCC(=O)N1CCC[C@H]1C(=O)N[C@@H](CO)C(=O)N[C@@H](CO)C(=O)NCC(=O)N[C@@H](C)C(=O)N1CCC[C@H]1C(=O)N1CCC[C@H]1C(=O)N1CCC[C@H]1C(=O)N[C@@H](CO)C(N)=O` [Example 127], the Emax at hGLP-1R (setting [4]) was determined as 98.5%. Also, the EC50 on hGCGR (setting [5]) was > 9950 nM.
